Biological target: SMYD2 (Homo sapiens (Human), UniProt Q9NRG4)
Test: SMYD2 biochemical assay (SMYD2 enzyme assay on peptide substrate, 3H-SAM Flashplate)
Conditions: read-out: SMYD2 Biochem IC50; IC50 values are an average of n = 1 to n = 50
From the text: S-adenosylmethionine (SAM), S-adenosylhomocysteine (SAH), bicine, Tween20, dimethylsulfoxide (DMSO), bovine skin gelatin (BSG), and Tris(2-carboxyethyl)phosphine hydrochloride (TCEP) were purchased from Sigma-Aldrich at the highest level of purity possible. ^3H-SAM was purchase from American Radiolabeled Chemicals with a specific activity of 80 Ci/mmol. 384-well streptavidin Flashplates were purchased from PerkinElmer.
The sequence was [sequence](K-Biot)-amide.
Production of Recombinant SMYD2 Enzymes for Biochemical Enzyme Activity Assays
Full length SMYD2 (NP_064582.2) was cloned into a pFastbac-Htb-lic vector with an N-terminal His6 tag and FLAG tag, preceded by a TEV protease cleavage site. The protein was expressed in Sf9 insect cells. Cells were resuspended in lysis buffer (25 mM HEPES-NaOH, pH 7.5, 200 mM NaCl, 5% glycerol, and 5 mM (3-ME) and lysed by sonication. The protein was purified by Ni-NTA (Qiagen), followed by TEV cleavage to remove the His6 tag, subtractive Ni-NTA (Qiagen), and gel filtration chromatography using an S200 column (GE Healthcare). Purified protein was stored in 20 mM Tris-HCl, pH 8.0, 100 mM NaCl, and 1 mM TCEP.
General Procedure for SMYD2 Enzyme Assays on Peptide Substrates
The assays were all performed in a buffer consisting of 20 mM Bicine (pH=7.6), 1 mM TCEP, 0.005% Bovine Skin Gelatin, and 0.002% Tween20, prepared on the day of use. […] DMSO (1 ul) was added to Columns 11, 12, 23, 24, rows A-H for the maximum signal control and 1 ul of SAH, a known product and inhibitor of SMYD2, was added to columns 11, 12, 23, 24, rows I-P for the minimum signal control. A cocktail (40 ul) containing the SMYD2 enzyme was added by Multidrop Combi (Thermo-Fisher). The compounds were allowed to incubate with SMYD2 for 30 min at room temperature, then a cocktail (10 ul) containing ^3H-SAM and peptide was added to initiate the reaction (final volume=51 ul). […] The assays were stopped by the addition of non-radioactive SAM (10 ul) to a final concentration of 600 uM, which dilutes the ^3H-SAM to a level where its incorporation into the peptide substrate is no longer detectable. 50 ul of the reaction in the 384-well polypropylene plate was then transferred to a 384-well Flashplate and the biotinylated peptides were allowed to bind to the streptavidin surface for at least 1 hour before being washed three times with 0.1% Tween20 in a Biotek ELx405 plate washer. The plates were then read in a PerkinElmer TopCount plate reader to measure the quantity of ^3H-labeled peptide bound to the Flashplate surface, measured as disintegrations per minute (dpm) or alternatively, referred to as counts per minute (cpm).
Where dpm=disintegrations per minute, cmpd=signal in assay well, and min and max are the respective minimum and maximum signal controls.
Where top and bottom are the normally allowed to float, but may be fixed at 100 or 0 respectively in a 3-parameter fit. The Hill Coefficient normally allowed to float but may also be fixed at 1 in a 3-parameter fit. I is the compound concentration.

SMYD2, sequence (Q9NRG4 whole entry): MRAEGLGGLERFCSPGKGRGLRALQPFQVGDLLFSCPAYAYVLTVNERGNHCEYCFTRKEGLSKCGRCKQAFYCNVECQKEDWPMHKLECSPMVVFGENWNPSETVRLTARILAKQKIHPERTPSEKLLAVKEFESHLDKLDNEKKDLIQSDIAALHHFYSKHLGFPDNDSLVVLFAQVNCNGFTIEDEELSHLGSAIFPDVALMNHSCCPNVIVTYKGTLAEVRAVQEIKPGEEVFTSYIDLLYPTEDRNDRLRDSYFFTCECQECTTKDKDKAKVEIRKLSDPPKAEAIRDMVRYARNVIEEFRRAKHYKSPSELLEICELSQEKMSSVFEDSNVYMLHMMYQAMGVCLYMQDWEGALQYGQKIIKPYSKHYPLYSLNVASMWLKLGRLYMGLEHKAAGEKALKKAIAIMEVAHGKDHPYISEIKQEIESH

Question: `O=C(NC1CN(Cc2ccc(OCc3ccncc3)cc2)C1)c1cn(C2CC2)nn1` [compound 828, 1-cyclopropyl-N-(1-{[4-(pyridin-4-ylmethoxy)phenyl]methyl}azetidin-3-yl)-1H-1,2,3-triazole-4-carboxamide] was tested. Which IC50 did it give?
Answer: 1.03 µM

Question: `CC(c1ccc(OCC(=O)N2CCOCC2)cc1)N1CC(NC(=O)c2cn(C3CC3)nn2)C1` (stereo not drawn) [compound 829, 1-cyclopropyl-N-[1-(1-(4-[2-(morpholin-4-yl)-2-oxoethoxy]phenyl}ethyl)azetidin-3-yl]-1H-1,2,3-triazole-4-carboxamide] was tested. Which IC50 did it give?
Answer: 0.713 µM

Question: `COCCOc1ccc(CN2CC(NC(=O)c3cn(C4CC4)nn3)C2)cc1` [compound 830, 1-cyclopropyl-N-(1-{[4-(2-methoxyethoxy)phenyl]methyl}azetidin-3-yl)-1H-1,2,3-triazole-4-carboxamide] was tested. Which IC50 did it give?
Answer: 2.07 µM

Question: With `Cn1cc(CN2CC(NC(=O)c3cc(C4CC4)cnn3)C2)c(Cl)n1` [compound 833, N-{1-[(3-chloro-1-methyl-1H-pyrazol-4-yl)methyl]azetidin-3-yl}-5-cyclopropylpyridazine-3-carboxamide] as the compound, how does the IC50 read?
Answer: 0.94 µM

Question: For `CN(C)CCNC(=O)c1cn(C2CC2)nn1` [compound 834, 1-cyclopropyl-N-[2-(dimethylamino)ethyl]-1H-1,2,3-triazole-4-carboxamide], which IC50 is on record?
Answer: > 50 µM

Question: Which IC50 does the source give for `CNCc1cccc(C(C)N2CC(NC(=O)c3cn(C4CC4)nn3)C2)c1OC` (stereo not drawn) [compound 835, 1-cyclopropyl-N-[1-(1-(2-methoxy-3-[(methylamino)methyl]phenyl}ethyl)azetidin-3-yl]-1H-1,2,3-triazole-4-carboxamide] here?
Answer: 0.78 µM

Question: With `CC(c1ccc(OCc2ccccc2)cc1)N1CC(NC(=O)c2cc(C3CC3)cnn2)C1` (stereo not drawn) [compound 836, N-(1-{1-[4-(benzyloxy)phenyl]ethyl}azetidin-3-yl)-5-cyclopropylpyridazine-3-carboxamide] as the compound, how does the IC50 read?
Answer: 0.0265 µM

Question: How did the IC50 turn out when `CC[C@@H](c1cccc(Cl)c1)N1CC(NC(=O)c2cn(C3CC3)nn2)C1` [compound 837, N-{1-[(1S)-1-(3-chlorophenyl)propyl]azetidin-3-yl}-1-cyclopropyl-1H-1,2,3-triazole-4-carboxamide] was run?
Answer: 0.34 µM

Question: `O=C(NC1CN(Cc2cn(CCc3ccccc3)cn2)C1)c1cc(C2CC2)cnn1` [compound 838, 5-cyclopropyl-N-(1-{[1-(2-phenylethyl)-1H-imidazol-4-yl]methyl}azetidin-3-yl)pyridazine-3-carboxamide] was tested. Which IC50 did it give?
Answer: 0.496 µM

Question: `CC(NC(=O)c1cc(C2CC2)cnn1)C1CNC1` (stereo not drawn) [compound 839, N-[1-(azetidin-3-yl)ethyl]-5-cyclopropylpyridazine-3-carboxamide] was tested. Which IC50 did it give?
Answer: 18.2 µM

Question: `CC(NC(=O)c1cc(C2CC2)cnn1)C1CN(C(C)C)C1` (stereo not drawn) [compound 840, 5-cyclopropyl-N-{1-[1-(propan-2-yl)azetidin-3-yl]ethyl}pyridazine-3-carboxamide] was tested. Which IC50 did it give?
Answer: 36.8 µM

Question: For `COc1ccccc1[C@H](C)N1CC(NC(=O)c2cc(C3CC3)cnn2)C1` [compound 841, 5-cyclopropyl-N-{1-[(1S)-1-(2-methoxyphenyl)ethyl]azetidin-3-yl}pyridazine-3-carboxamide], which IC50 is on record?
Answer: 5.01 µM

Question: How did the IC50 turn out when `COc1ccccc1[C@@H](C)N1CC(NC(=O)c2cc(C3CC3)cnn2)C1` [compound 842, 5-cyclopropyl-N-{1-[(1R)-1-(2-methoxyphenyl)ethyl]azetidin-3-yl}pyridazine-3-carboxamide] was run?
Answer: 0.189 µM

Question: Which IC50 does the source give for `COc1ccc(C(C)N2CC(NC(=O)c3cn(C4CC4)nn3)C2)c(Cl)c1` (stereo not drawn) [compound 845, N-{1-[1-(2-chloro-4-methoxyphenyl)ethyl]azetidin-3-yl}-1-cyclopropyl-1H-1,2,3-triazole-4-carboxamide] here?
Answer: 0.088 µM

Question: With `O=C(NC1CN(Cc2ccc(OCc3cscn3)cc2)C1)c1cn(C2CC2)nn1` [compound 846, 1-cyclopropyl-N-(1-{[4-(1,3-thiazol-4-ylmethoxy)phenyl]methyl}azetidin-3-yl)-1H-1,2,3-triazole-4-carboxamide] as the compound, how does the IC50 read?
Answer: 1.09 µM

Question: How did the IC50 turn out when `O=C(NC1CN(Cc2ccc(OCc3ccccn3)cc2)C1)c1cn(C2CC2)nn1` [compound 849, 1-cyclopropyl-N-(1-{[4-(pyridin-2-ylmethoxy)phenyl]methyl}azetidin-3-yl)-1H-1,2,3-triazole-4-carboxamide] was run?
Answer: 2.66 µM

Question: Which IC50 does the source give for `COc1cccc(C(C)N2CC(NC(=O)c3cc(C4CC4)cnn3)C2)c1Cl` (stereo not drawn) [compound 851, N-{1-[1-(2-chloro-3-methoxyphenyl)ethyl]azetidin-3-yl}-5-cyclopropylpyridazine-3-carboxamide] here?
Answer: 0.0721 µM

Question: `CC(c1ccc(OCCc2ccccc2)cc1)N1CC(NC(=O)c2cn(C3CC3)nn2)C1` (stereo not drawn) [compound 853, 1-cyclopropyl-N-(1-{1-[4-(2-phenylethoxy)phenyl]ethyl}azetidin-3-yl)-1H-1,2,3-triazole-4-carboxamide] was tested. Which IC50 did it give?
Answer: 0.776 µM

Question: `CNC(=O)c1ccc(COc2ccc(C(C)N3CC(NC(=O)c4cn(C5CC5)nn4)C3)cc2)cc1` (stereo not drawn) [compound 854, 1-cyclopropyl-N-{1-[1-(4-{[4-(methylcarbamoyl)phenyl]methoxy}phenyl)ethyl]azetidin-3-yl}-1H-1,2,3-triazole-4-carboxamide] was tested. Which IC50 did it give?
Answer: 0.965 µM

Question: Which IC50 does the source give for `COc1ccc(COc2ccc(C(C)N3CC(NC(=O)c4cn(C5CC5)nn4)C3)cc2)cc1` (stereo not drawn) [compound 855, 1-cyclopropyl-N-[1-(1-{4-[(4-methoxyphenyl)methoxy]phenyl}ethyl)azetidin-3-yl]-1H-1,2,3-triazole-4-carboxamide] here?
Answer: 0.159 µM

Question: With `COc1ccc(C(C)N2CC(NC(=O)c3cc(C4CC4)cnn3)C2)cc1` (stereo not drawn) [compound 856, 5-cyclopropyl-N-{1-[1-(4-methoxyphenyl)ethyl]azetidin-3-yl}pyridazine-3-carboxamide] as the compound, how does the IC50 read?
Answer: 0.603 µM

Question: `CC(c1ccc(OCCN(C)C)cc1)N1CC(NC(=O)c2cn(C3CC3)nn2)C1` (stereo not drawn) [compound 857, 1-cyclopropyl-N-[1-(1-{4-[2-(dimethylamino)ethoxy]phenyl}ethyl)azetidin-3-yl]-1H-1,2,3-triazole-4-carboxamide] was tested. Which IC50 did it give?
Answer: 1.98 µM

Question: With `CC(c1ccc(OCCCN(C)C)cc1)N1CC(NC(=O)c2cn(C3CC3)nn2)C1` (stereo not drawn) [compound 858, 1-cyclopropyl-N-[1-(1-{4-[3-(dimethylamino)propoxy]phenyl}ethyl)azetidin-3-yl]-1H-1,2,3-triazole-4-carboxamide] as the compound, how does the IC50 read?
Answer: 4.79 µM

Question: With `CC(c1ccccc1Cl)N1CC(NC(=O)c2cn(C3CC3)nn2)C1` (stereo not drawn) [compound 859, N-{1-[1-(2-chlorophenyl)ethyl]azetidin-3-yl}-1-cyclopropyl-1H-1,2,3-triazole-4-carboxamide] as the compound, how does the IC50 read?
Answer: 0.16 µM

Question: With `COc1ccc(Cl)cc1C(C)N1CC(NC(=O)c2cn(C3CC3)nn2)C1` (stereo not drawn) [compound 860, N-{1-[1-(5-chloro-2-methoxyphenyl)ethyl]azetidin-3-yl}-1-cyclopropyl-1H-1,2,3-triazole-4-carboxamide] as the compound, how does the IC50 read?
Answer: 2.79 µM

Question: How did the IC50 turn out when `COc1cccc(C(C)N2CC(NC(=O)c3cc(C4CC4)cnn3)C2)c1OC` (stereo not drawn) [compound 861, 5-cyclopropyl-N-{1-[1-(2,3-dimethoxyphenyl)ethyl]azetidin-3-yl}pyridazine-3-carboxamide] was run?
Answer: 0.121 µM

Question: `CC(c1ccc(NCc2ccccc2)cc1)N1CC(NC(=O)c2cn(C3CC3)nn2)C1` (stereo not drawn) [compound 862, N-(1-{1-[4-(benzylamino)phenyl]ethyl}azetidin-3-yl)-1-cyclopropyl-1H-1,2,3-triazole-4-carboxamide] was tested. Which IC50 did it give?
Answer: 0.334 µM

Question: Which IC50 does the source give for `CC(c1ccc(OCC(C)(C)C)cc1)N1CC(NC(=O)c2cn(C3CC3)nn2)C1` (stereo not drawn) [compound 864, 1-cyclopropyl-N-(1-{1-[4-(2,2-dimethylpropoxy)phenyl]ethyl}azetidin-3-yl)-1H-1,2,3-triazole-4-carboxamide] here?
Answer: 3.14 µM

Question: How did the IC50 turn out when `COc1cnc(C(C)N2CC(NC(=O)c3cn(C4CC4)nn3)C2)nc1` (stereo not drawn) [compound 865, 1-cyclopropyl-N-{1-[1-(5-methoxypyrimidin-2-yl)ethyl]azetidin-3-yl}-1H-1,2,3-triazole-4-carboxamide] was run?
Answer: 1.64 µM

Question: For `CC[C@@H](c1cccc(Cl)c1)N1CC(NC(=O)c2cc(C3CC3)cnn2)C1` [compound 866, N-{1-[(1S)-1-(3-chlorophenyl)propyl]azetidin-3-yl}-5-cyclopropylpyridazine-3-carboxamide], which IC50 is on record?
Answer: 0.355 µM

Question: How did the IC50 turn out when `CN(C)CCCNC(=O)c1cc(C2CC2)cnn1` [compound 867, 5-cyclopropyl-N-[3-(dimethylamino)propyl]pyridazine-3-carboxamide] was run?
Answer: > 50 µM

Question: Which IC50 does the source give for `CC(c1ccc(OCc2ccccc2)c(Cl)c1)N1CC(NC(=O)c2cn(C3CC3)nn2)C1` (stereo not drawn) [compound 868, N-(1-{1-[4-(benzyloxy)-3-chlorophenyl]ethyl}azetidin-3-yl)-1-cyclopropyl-1H-1,2,3-triazole-4-carboxamide] here?
Answer: 0.925 µM

Question: For `CN(C)CCNC(=O)c1cc(C2CC2)cnn1` [compound 869, 5-cyclopropyl-N-[2-(dimethylamino)ethyl]pyridazine-3-carboxamide], which IC50 is on record?
Answer: 21.1 µM

Question: `C[C@@H](c1ccccc1)N1CC(NC(=O)c2ncc(C3CC3)[nH]2)C1` [compound 914, 5-cyclopropyl-N-{1-[(1S)-1-phenylethyl]azetidin-3-yl}-1H-imidazole-2-carboxamide] was tested. Which IC50 did it give?
Answer: 0.729 µM

Question: With `C[C@H](c1ccccc1)N1CC(NC(=O)c2ncc(C3CC3)[nH]2)C1` [compound 915, 5-cyclopropyl-N-{1-[(1R)-1-phenylethyl]azetidin-3-yl}-1H-imidazole-2-carboxamide] as the compound, how does the IC50 read?
Answer: > 50 µM

Question: `CC(C)N1CCC(NC(=O)c2cc(C3CC3)cnn2)CC1` [compound 916, 5-cyclopropyl-N-[1-(propan-2-yl)piperidin-4-yl]pyridazine-3-carboxamide] was tested. Which IC50 did it give?
Answer: 29.1 µM

Question: Which IC50 does the source give for `CN1CCC(NC(=O)c2cc(C3CC3)cnn2)CC1` [compound 917, 5-cyclopropyl-N-(1-methylpiperidin-4-yl)pyridazine-3-carboxamide] here?
Answer: > 50 µM

Question: Which IC50 does the source give for `CN1CCCC(NC(=O)c2cc(C3CC3)cnn2)C1` (stereo not drawn) [compound 918, 5-cyclopropyl-N-(1-methylpiperidin-3-yl)pyridazine-3-carboxamide] here?
Answer: > 50 µM

Question: Which IC50 does the source give for `CC(C)N1CC(NC(=O)c2cn(C3CC3)cn2)C1` [compound 919, 1-cyclopropyl-N-(1-isopropylazetidin-3-yl)-1H-imidazole-4-carboxamide] here?
Answer: 4.6 µM

From patent US10266526B2, “Substituted 1,2,3-triazoles as SMYD inhibitors for treating cancer” (EPIZYME, INC., priority 2014, dated 2019)
